From PMC11915372, “Identification of a Series Containing a Pentafluorophenyl Moiety That Targets Pks13 to Inhibit Growth of Mycobacterium tuberculosis” (ACS Infectious Diseases, 2025)
In brackets after ≈: the same amount, converted by molar mass. Where two headings read alike, the source gives them in different places.

Experiments:
[1] = system: M. tuberculosis (H37Rv); assay: microbe, parasite or virus in culture; type: cell-based, Mycobacterium tuberculosis
[2] = physchem; type: physicochemical
[3] = type: in vitro ADME, mouse
[4] = type: in vitro ADME, mouse; remark: listed apart in the source
[5] = physchem; settings: pH 7.4
[6] = system: HepG2 cells; assay: HepG2 cytotoxicity; settings: Homo sapiens, HepG2, read-out: HepG2 inhibitory concentration (IC50)
Source text: Assays to establish HepG2 cytotoxicity, in vitro microsomal/hepatocyte metabolic stability, aqueous kinetic solubility, and in vivo pharmacokinetic profiles were all performed as previously described.[15],[35]−[37]

[7] = Mycobacterium tuberculosis, H37RV, read-out: H37Rv MIC A
[8] = Mycobacterium tuberculosis, H37RV, read-out: H37Rv MIC B
[9] = Mycobacterium tuberculosis, H37RV, read-out: Wk2_7H9/DPPC/ casitone/ Tyloxapol MIC
[10] = Mycobacterium tuberculosis, H37RV, read-out: Wk2_ 7H9/DPPC/ cholesterol/BSA/ Tyloxapol MIC
[11] = Mycobacterium tuberculosis, H37RV, read-out: Wk2_7H9/glucose/ BSA/Tyloxapol MIC
[12] = Mycobacterium tuberculosis, H37RV, read-out: Wk2_7H9/glucose/ casitone/ Tyloxapol MIC
[13] = pH 7.4, aqueous buffer, kinetic from dmso stock
[14] = kinetic solubility in water, read-out: Kin. Sol
[15] = pH 7.4, aqueous buffer, kinetic from dmso stock, pH7.4, read-out: Kinetic Solubility pH7.4
[16] = intrinsic clearance (Cli), CD1 mouse liver microsomes, Tables 1-4

Row | SMILES | MIC [1, 7] [µM] | MIC [1, 8] [µM] | MIC [1, 9] [µM] | MIC [1, 10] [µM] | MIC [1, 11] [µM] | MIC [1, 12] [µM] | solubility kinetic [2, 13] [µM] | solubility kinetic ([2]; read-out: Kin. Sol) [µM] | Microsomal Cli ([3]; CD1, mouse) [mL/min/g] | Mouse micro Cl ([3]; mouse, microsomes) [mLmin/g] | Hepatocyte Cli ([4]; mouse) [mL/min/g] | Mouse Heps Cl ([4]; mouse, hepatocytes) [mLmin/g] | chromatographic logD [5] | IC50 [6] [µM] | solubility kinetic [2, 14] [µM] | solubility kinetic [2, 15] [µM] | Mouse micro Cl [3, 16] [mLmin/g] | Microsomal Cli ([3]; supplement data table) [mL/min/g] | other results
1 | COC(=O)c1cnccc1NC(=O)c1c(F)c(F)c(F)c(F)c1F [Compound 16, COC(=O)c1cnccc1NC(=O)c1c(c(c(c(c1F)F)F)F)F] | 0.1 (≈ 0.0346 µg/mL) | 0.6 (≈ 0.208 µg/mL) | 0.1 (≈ 0.0346 µg/mL) | 0.6 (≈ 0.208 µg/mL) | 0.3 (≈ 0.104 µg/mL) | 0.15 (≈ 0.0519 µg/mL) | 112 (≈ 38.8 µg/mL) | 112 (≈ 38.8 µg/mL) | 20 | 20 | >50 | >50 | 3.2 | 64 | – | – | – | – | –
2 | COC(=O)c1ccncc1NC(=O)c1c(F)c(F)c(F)c(F)c1F [Compound 18, COC(=O)c1ccncc1NC(=O)c1c(c(c(c(c1F)F)F)F)F] | 4.7 (≈ 1.63 µg/mL) | 12.5 (≈ 4.33 µg/mL) | 4.7 (≈ 1.63 µg/mL) | 12.5 (≈ 4.33 µg/mL) | 12.5 (≈ 4.33 µg/mL) | 4.7 (≈ 1.63 µg/mL) | 109 (≈ 37.7 µg/mL) | 109 (≈ 37.7 µg/mL) | 27 | 27 | – | – | 2.8 | > 100 | – | – | – | – | –
3 | COC(=O)c1nn(C)cc1NC(=O)c1c(F)c(F)c(F)c(F)c1F [Compound 19, COC(=O)c1nn(cc1NC(=O)c1c(c(c(c(c1F)F)F)F)F)C] | 0.15 (≈ 0.0524 µg/mL) | – | 0.15 (≈ 0.0524 µg/mL) | – | 0.3 (≈ 0.105 µg/mL) | 0.2 (≈ 0.0698 µg/mL) | – | – | – | – | – | – | 2.7 | > 100 | 55 (≈ 19.2 µg/mL) | 55 (≈ 19.2 µg/mL) | 23 | 23 | Mouse Heps Cl ([4]; intrinsic clearance (Cli), mouse hepatocytes, Tables 1-4): >50 mLmin/g; Hepatocyte Cli ([4]; supplement data table): >50 mL/min/g
4 | CCOC(=O)c1c(NC(=O)c2c(F)c(F)c(F)c(F)c2F)ncn1C [Compound 21, CCOC(=O)c1c(ncn1C)NC(=O)c1c(c(c(c(c1F)F)F)F)F] | 2.3 (≈ 0.835 µg/mL) | 6.3 (≈ 2.29 µg/mL) | 2.3 (≈ 0.835 µg/mL) | 6.3 (≈ 2.29 µg/mL) | 4.7 (≈ 1.71 µg/mL) | 1.6 (≈ 0.581 µg/mL) | – | – | – | – | – | – | 2.2 | > 100 | 203 (≈ 73.7 µg/mL) | 203 (≈ 73.7 µg/mL) | 8.6 | 8.6 | loss of MIC potency ([1]; relative to comparator of the series (21 vs thiophenes; 42 vs 24)): 10 fold
5 | COC(=O)c1c(C)noc1NC(=O)c1c(F)c(F)c(F)c(F)c1F [Compound 22, COC(=O)c1c(noc1NC(=O)c1c(c(c(c(c1F)F)F)F)F)C] | 0.97 (≈ 0.34 µg/mL) | 3.1 (≈ 1.09 µg/mL) | 1 (≈ 0.35 µg/mL) | 3.1 (≈ 1.09 µg/mL) | 2.3 (≈ 0.805 µg/mL) | 0.8 (≈ 0.28 µg/mL) | 242 (≈ 84.7 µg/mL) | 242 (≈ 84.7 µg/mL) | 3.8 | 3.8 | 46 | 45.6 | 1.5 | > 100 | – | – | – | – | –
6 | COC(=O)c1nc(C)oc1NC(=O)c1c(F)c(F)c(F)c(F)c1F [Compound 23, COC(=O)c1nc(oc1NC(=O)c1c(c(c(c(c1F)F)F)F)F)C] | 0.6 (≈ 0.21 µg/mL) | 1.2 (≈ 0.42 µg/mL) | 0.6 (≈ 0.21 µg/mL) | 1.2 (≈ 0.42 µg/mL) | 1.2 (≈ 0.42 µg/mL) | 0.6 (≈ 0.21 µg/mL) | 237 (≈ 83 µg/mL) | 237 (≈ 83 µg/mL) | <0.5 | <0.5 | 8.1 | 8.1 | 1.4 | > 100 | – | – | – | – | –
7 | CCOC(=O)c1nc(C)oc1NC(=O)c1c(F)c(F)c(F)c(F)c1F [Compound 24, CCOC(=O)c1nc(oc1NC(=O)c1c(c(c(c(c1F)F)F)F)F)C] | 0.27 (≈ 0.0983 µg/mL) | 0.6 (≈ 0.219 µg/mL) | 0.271 (≈ 0.0987 µg/mL) | 0.6 (≈ 0.219 µg/mL) | 0.434 (≈ 0.158 µg/mL) | 0.168 (≈ 0.0612 µg/mL) | 204 (≈ 74.3 µg/mL) | 204 (≈ 74.3 µg/mL) | <0.5 | – | 12 | – | 1.8 | > 100 | – | – | – | – | MIC ([1]; read-out: H37Rv MIC A): 0.3 µM (≈ 0.109 µg/mL)
8 | CCOC(=O)c1nc(C)oc1NC(=O)c1cc(F)c(F)c(F)c1F [Compound 25, CCOC(=O)c1nc(oc1NC(=O)c1cc(c(c(c1F)F)F)F)C] | 0.3 (≈ 0.104 µg/mL) | 0.6 (≈ 0.208 µg/mL) | 0.3 (≈ 0.104 µg/mL) | 0.6 (≈ 0.208 µg/mL) | 0.6 (≈ 0.208 µg/mL) | 0.3 (≈ 0.104 µg/mL) | 136 (≈ 47.1 µg/mL) | 136 (≈ 47.1 µg/mL) | 5.1 | 5.1 | 17 | 17 | 2.5 | > 100 | – | – | – | – | –
9 | CCOC(=O)c1nc(C)oc1NC(=O)c1cc(F)c(F)c(F)c1 [Compound 26, CCOC(=O)c1nc(oc1NC(=O)c1cc(c(c(c1)F)F)F)C] | > 50 | > 50 | > 50 | > 50 | > 50 | > 50 | – | – | – | – | – | – | 2.3 | – | 241 (≈ 79.1 µg/mL) | 241 (≈ 79.1 µg/mL) | 7.1 | 7.1 | –
10 | CCOC(=O)c1nc(C)oc1NC(=O)c1c(F)cc(F)c(F)c1F [Compound 27, CCOC(=O)c1nc(oc1NC(=O)c1c(cc(c(c1F)F)F)F)C] | 3.1 (≈ 1.07 µg/mL) | 4.7 (≈ 1.63 µg/mL) | 3.1 (≈ 1.07 µg/mL) | 4.7 (≈ 1.63 µg/mL) | 4.7 (≈ 1.63 µg/mL) | 2.3 (≈ 0.796 µg/mL) | 232 (≈ 80.3 µg/mL) | 232 (≈ 80.3 µg/mL) | 0.8 | 0.80 | 3.4 | 3.4 | 1.9 | > 100 | – | – | – | – | –
